Test results reported in patent US20110207726A1, “Inhibitors of Human Cathepsin L, Cathepsin B, and Cathepsin S” (The Trustees of the University of Pennsylvania, priority 2008, published 2011).
Like-named read-outs stand apart in the source and are kept apart here.

Key:
Assay type in all cases: biochemical
Human spleen cathepsin S = molecular target: T1, Human spleen cathepsin S (Homo sapiens, UniProt P25774); test: Cathepsin S assay, IC50 determination
T1 construct: Human spleen cathepsin S (Calbiochem 219344, 40 ng/mL); purchased Calbiochem 219344; host or cells: human spleen
T1 sequence (P25774 115-331): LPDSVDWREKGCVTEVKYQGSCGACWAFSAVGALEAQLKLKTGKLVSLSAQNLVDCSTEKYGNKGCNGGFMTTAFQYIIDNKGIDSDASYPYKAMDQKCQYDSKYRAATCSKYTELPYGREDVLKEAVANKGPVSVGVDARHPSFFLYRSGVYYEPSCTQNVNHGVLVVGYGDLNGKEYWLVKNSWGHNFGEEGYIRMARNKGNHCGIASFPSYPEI
Description: (§1) Human spleen cathepsin S (Calbiochem 219344, 40 ng/mL) was assayed using 15 microM Z-Phe-Arg-AMC substrate. Human liver cathepsin B (Calbiochem 219362, 65 ng/mL) was assayed using 15 microM Z-Arg-Arg-AMC substrate (Bachem I-1135). All reactions were performed in 20 mM sodium acetate buffer containing 1 mM EDTA and 5 mM cysteine, pH 5.5.
(§2) Compounds were serially diluted in DMSO and transferred into a 96-well Corning 3686 assay microplate to give a 16-point two-fold serial dilution dose response ranging from 25 microM to 760 pM. Human liver cathepsin L (Calbiochem 219402) was activated by incubating with assay buffer for 30 min. Upon activation, cathepsin L (300 pM, 8.7 ng/mL) was incubated with 1 microM Z-Phe-Arg-AMC substrate (Sigma C9521) and test compound in […] of assay buffer for 1 hour at room temperature. Fluorescence of AMC released by enzyme-catalyzed hydrolysis of Z-Phe-Arg-AMC was read on a PerkinElmer Envision microplate reader (excitation 355 nm, emission 460 nm). Data were scaled using internal controls and fitted to a four-parameter logistic model (IDBS XLfit equation 205) to obtain IC50 values in triplicate.
(§3) Compound No. 1 was assayed for inhibition against papain and cathepsins B, G, K, S, and V. Papain from Carica papaya (Calbiochem 5125, 11 ng/mL), human cathepsin K (Calbiochem 342001, 35 ng/mL), human spleen cathepsin S (Calbiochem 219344, 40 ng/mL), and human cathepsin V (Calbiochem 219467, 39 ng/ml) were assayed using Z-Phe-Arg-AMC substrate at 20 μM, 20 μM, 15 μM, and 1 μM, respectively. Human liver cathepsin B (Calbiochem 219362, 65 ng/mL) was assayed using 15 μM Z-Arg-Arg-AMC substrate (Bachem I-1135). Human neutrophil cathepsin G (Calbiochem 219373, 4.2 μg/mL) was assayed using 15 μM Suc-Ala-Ala-Pro-Phe-AMC substrate (Sigma S9761). All reactions were performed in 20 mM sodium acetate buffer containing 5 mM cysteine and 1 mM EDTA, pH 5.5. Reaction progress was monitored using the Envision microplate reader. IC50 values were measured in triplicate.

Human liver cathepsin B = molecular target: T2, Human liver cathepsin B (Homo sapiens, UniProt P07858); test: Cathepsin B assay, IC50 determination
T2 construct: Human liver cathepsin B (Calbiochem 219362, 65 ng/mL); purchased Calbiochem 219362; host or cells: human liver
Description: as §1, §2, §3

human liver cathepsin L = molecular target: T3, human liver cathepsin L (Homo sapiens, UniProt P07711); test: Cathepsin L assay, IC50 determination
T3 construct: 8.7 ng/mL human liver cathepsin L (Calbiochem 219402); purchased Calbiochem 219402; host or cells: human liver
T3 sequence (P07711 114-288 limits assumed): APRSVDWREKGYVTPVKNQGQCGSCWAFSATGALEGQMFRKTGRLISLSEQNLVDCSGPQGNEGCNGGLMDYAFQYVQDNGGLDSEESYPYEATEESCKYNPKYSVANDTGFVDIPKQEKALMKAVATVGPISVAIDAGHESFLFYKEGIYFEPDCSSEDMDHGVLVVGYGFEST
T3 sequence (P07711 292-333 limits assumed): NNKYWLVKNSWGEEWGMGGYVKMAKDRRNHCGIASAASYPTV
Description: Assay buffer consisted of 20 mM sodium acetate, 1 mM ethylenediaminetetraacetic acid (EDTA) and 5 mM cysteine, pH 5.5. Cathepsin L was incubated in assay buffer for 30 minutes prior to dispensing into wells to allow for efficient reduction of the active site cysteine required for full enzymatic activity.
Upon activation, cathepsin L (300 pM, 8.7 ng/mL) was incubated with 1 microM Z-Phe-Arg-AMC substrate (Sigma C9521) and test compound in […] of assay buffer for 1 hour at room temperature.
All reactions were performed in 20 mM sodium acetate buffer containing 5 mM cysteine and 1 mM EDTA, pH 5.5. Reaction progress was monitored using the Envision microplate reader. IC50 values were measured in triplicate.

| SMILES | IC50 (Human spleen cathepsin S; Table 1, read-out: IC50 Cat S) [µM] | IC50 (Human liver cathepsin B; Table 1, read-out: IC50 Cat B) [µM] | IC50 (human liver cathepsin L; Table 1, read-out: IC50 Cat L) [µM] | IC50 (Human spleen cathepsin S; Tables 2-11, read-out: Cat S) [µM] | IC50 (Human liver cathepsin B; Tables 2-11, read-out: Cat B) [µM] | IC50 (human liver cathepsin L; Tables 2-11, read-out: Cat L) [µM] |
| --- | --- | --- | --- | --- | --- | --- |
| CCc1ccccc1NC(=O)CSC(=O)NNC(=O)[C@H](COCc1ccccc1)NC(=O)OC(C)(C)C [Compound No. 46] | 2.15 | 14.3 | 1.27 |  |  |  |
| CC(C)(C)OC(=O)N[C@@H](COCc1ccccc1)C(=O)NNC(=O)SCC(=O)N1CCCc2ccccc21 [Compound No. 47] | 2.64 | 13.2 | 1.51 |  |  |  |
| CCc1ccccc1NC(=O)CSC(=O)NNC(=O)[C@@H](COCc1ccccc1)NC(=O)OC(C)(C)C [Compound No. 48] | 4.42 | > 25 | 15.4 |  |  |  |
| CC(C)(C)OC(=O)N[C@H](COCc1ccccc1)C(=O)NNC(=O)SCC(=O)N1CCCc2ccccc21 [Compound No. 49] | 5.89 | > 25 | 17.9 |  |  |  |
| CC(C)(C)OC(=O)N[C@@H](COCc1ccccc1)C(=O)NNC(=O)SCC(=O)N1CCc2ccccc2C1 [Compound No. 50] | 0.95 | 9.28 | 0.37 |  |  |  |
| CC(C)(C)OC(=O)N[C@@H](COCc1ccccc1)C(=O)NNC(=O)SCC(=O)NCCc1ccccc1 [Compound No. 51] | 0.65 | > 25 | 0.51 |  |  |  |
| CC(C)(C)OC(=O)N[C@@H](COCc1ccccc1)C(=O)NNC(=O)SCC(=O)NCCc1ccc(Br)cc1 [Compound No. 52] | 0.91 | > 25 | 0.58 |  |  |  |
| CC(C)(C)OC(=O)N[C@@H](COCc1ccccc1)C(=O)NNC(=O)SCC(=O)NCCc1c[nH]c2ccccc12 [Compound No. 53] | 0.92 | > 25 | 0.38 |  |  |  |
| CC(C)(C)OC(=O)N[C@@H](COCc1ccccc1)C(=O)NNC(=O)SCC(=O)Nc1ccccc1[N+](=O)[O-] [Compound No. 55] | 1.44 | 5.07 | 0.7 |  |  |  |
| CCOC(=O)c1cccc(NC(=O)CSC(=O)NNC(=O)[C@H](COCc2ccccc2)NC(=O)OC(C)(C)C)c1 [Compound No. 56] | 1.64 | > 25 | 0.43 |  |  |  |
| CC(C)(C)OC(=O)N[C@@H](CCCCNC(=O)OCc1ccccc1)C(=O)NNC(=O)SCC(=O)N1CCCc2ccccc21 [Compound No. 57] | 5.15 | 4.35 | > 25 |  |  |  |
| CCc1ccccc1NC(=O)CSC(=O)NNC(=O)[C@H](CCCCNC(=O)OCc1ccccc1)NC(=O)OC(C)(C)C [Compound No. 58] | 2.15 | 14.3 | 1.27 |  |  |  |
| CC(C)(C)OC(=O)N[C@@H](CCC(=O)NC1c2ccccc2Oc2ccccc21)C(=O)NNC(=O)SCC(=O)N1CCCc2ccccc21 [Compound No. 60] | > 25 | > 25 | > 25 |  |  |  |
| CCc1ccccc1NC(=O)CSC(=O)NNC(=O)[C@H](CCCNC(=N)N[N+](=O)[O-])NC(=O)OC(C)(C)C [Compound No. 62] | 2.15 | > 25 | 3.67 |  |  |  |
| CCc1ccccc1NC(=O)CSC(=O)NNC(=O)CNC(=O)OC(C)(C)C [Compound No. 64] | > 25 | ≥ 25 | > 25 |  |  |  |
| CCc1ccccc1NC(=O)CSC(=O)NNC(=O)[C@H](Cc1ncc[nH]1)NC(=O)OC(C)(C)C [Compound No. 65] | > 25 | 13.7 | > 25 |  |  |  |
| CC(C)(C)OC(=O)N[C@@H](Cc1ncc[nH]1)C(=O)NNC(=O)SCC(=O)N1CCCc2ccccc21 [Compound No. 66] | > 25 | 11.6 | > 25 |  |  |  |
| CCc1ccccc1NC(=O)CSC(=O)NNC(=O)[C@H](C)CO [Compound No. 67] | > 25 | > 25 | > 25 |  |  |  |
| C[C@H](CO)C(=O)NNC(=O)SCC(=O)N1CCCc2ccccc21 [Compound No. 68] | > 25 | > 25 | > 25 |  |  |  |
| CCc1ccccc1NC(=O)CSC(=O)NNC(=O)[C@@H](C)CO [Compound No. 69] | > 25 | > 25 | > 25 |  |  |  |

| SMILES | IC50 (Human spleen cathepsin S; Table 1, read-out: IC50 Cat S) [µM] | IC50 (Human liver cathepsin B; Table 1, read-out: IC50 Cat B) [µM] | IC50 (human liver cathepsin L; Table 1, read-out: IC50 Cat L) [µM] | IC50 (Human spleen cathepsin S; Tables 2-11, read-out: Cat S) [µM] | IC50 (Human liver cathepsin B; Tables 2-11, read-out: Cat B) [µM] | IC50 (human liver cathepsin L; Tables 2-11, read-out: Cat L) [µM] |
| --- | --- | --- | --- | --- | --- | --- |
| C[C@@H](CO)C(=O)NNC(=O)SCC(=O)N1CCCc2ccccc21 [Compound No. 70] | > 25 | > 25 | > 25 |  |  |  |
| CCc1ccccc1NC(=O)CSC(=O)NNC(=O)[C@@H](C)CO[Si](C)(C)C(C)(C)C [Compound No. 71] | > 25 | > 25 | > 25 |  |  |  |
| CCc1ccccc1NC(=O)CSC(=O)NNC(=O)[C@@H](C)COCc1ccc(OC)cc1 [Compound No. 72] | > 25 | > 25 | > 25 |  |  |  |
| CCc1ccccc1NC(=O)CSC(=O)NNC(=O)CCc1c[nH]c2ccccc12 [Compound No. 73] | > 25 | > 25 | > 25 |  |  |  |
| CCc1ccccc1NC(=O)CSC(=O)NNC(=O)C[C@H](C)NC(=O)OC(C)(C)C [Compound No. 74] | > 25 | > 25 | > 25 |  |  |  |
| C[C@@H](CC(=O)NNC(=O)SCC(=O)N1CCCc2ccccc21)NC(=O)OC(C)(C)C [Compound No. 75] | > 25 | > 25 | > 25 |  |  |  |
| CCc1ccccc1NC(=O)CSC(=O)NNC(=O)C[C@H](CCSC)NC(=O)OC(C)(C)C [Compound No. 76] | 2.41 | > 25 | 5.52 |  |  |  |
| CSCC[C@@H](CC(=O)NNC(=O)SCC(=O)N1CCCc2ccccc21)NC(=O)OC(C)(C)C [Compound No. 77] | 3.01 | > 25 | 6.95 |  |  |  |
| CCc1ccccc1NC(=O)CSC(=O)NNC(=O)C[C@@H](NC(=O)OC(C)(C)C)C(C)C [Compound No. 78] | > 25 | 11.5 | 7.52 |  |  |  |
| CC(C)[C@@H](CC(=O)NNC(=O)SCC(=O)N1CCCc2ccccc21)NC(=O)OC(C)(C)C [Compound No. 79] | > 25 | 15.8 | > 25 |  |  |  |
| CCc1ccccc1NC(=O)CSC(=O)NNC(=O)C[C@@H]1CCCN1C(=O)OC(C)(C)C [Compound No. 80] | > 25 | > 25 | > 25 |  |  |  |
| CC(C)(C)OC(=O)N1CCC[C@H]1CC(=O)NNC(=O)SCC(=O)N1CCCc2ccccc21 [Compound No. 81] | > 25 | > 25 | > 25 |  |  |  |
| CCc1ccccc1NC(=O)CSC(=O)NNC(=O)C[C@H](COCc1ccccc1)NC(=O)OC(C)(C)C [Compound No. 82] | 4.47 | > 25 | > 25 |  |  |  |
| CC(C)(C)OC(=O)N[C@@H](COCc1ccccc1)CC(=O)NNC(=O)SCC(=O)N1CCCc2ccccc21 [Compound No. 83] | 5.95 | > 25 | 2.12 |  |  |  |
| CCc1ccccc1NC(=O)CSC(=O)NNC(=O)C[C@@H](COCc1ccccc1)NC(=O)OC(C)(C)C [Compound No. 84] | 15.2 | > 25 | > 25 |  |  |  |
| CC(C)(C)OC(=O)N[C@H](COCc1ccccc1)CC(=O)NNC(=O)SCC(=O)N1CCCc2ccccc21 [Compound No. 85] | > 25 | > 25 | > 25 |  |  |  |
| CCc1ccccc1NC(=O)CSC(=O)NNC(=O)C[C@@H](Cc1c[nH]c2ccccc12)NC(=O)OC(C)(C)C [Compound No. 86] | > 25 | > 25 | > 25 |  |  |  |
| CCc1ccccc1NC(=O)COC(=O)NNC(=O)[C@H](Cc1c[nH]c2ccccc12)NC(=O)OC(C)(C)C [Compound No. 93] |  |  |  | 0.062 | ≥ 25 | 0.011 |
| CC(C)(C)OC(=O)N[C@@H](Cc1c[nH]c2ccccc12)C(=O)NNC(=O)OCc1ccccc1 [Compound No. 94] |  |  |  | 4.1 | ≥ 25 | 0.806 |
